Experimental data taken from patent US8778303B2, “99mTc-labeled 19 amino acid containing peptide for use as phosphatidylethanolamine binding molecular probe and radiopharmaceutical” (The Medical College of Wisconsin, Inc., priority 2008, dated 2014).
Entries after “also recorded” stand apart in the source; their conditions may differ.

Columns and labels:
[1] = Stability of purified radiotracer in aqueous solution; format: physicochemical; conditions: once purified
Procedure: HPLC method 2. Jupiter C18 column (90 Å pore size, 250×4.6 mm) was used with a buffered mobile phase system consisting of phosphate buffer (10 mM sodium phosphate, pH 6.7) and acetonitrile at a flow rate of 1.0 ml/min at room temperature. A baseline of 5 min at 90% buffer A (phosphate buffer, pH6.7) and 10% buffer B (acetonitrile) was followed by a linear gradient to 10% buffer A and 90% buffer B in 30 min. The level of radioactivity in the HPLC elute was monitored by gamma counting at an energy window of 140±15 keV.
HYNIC-Duramycin was labeled with ^99mTc using the tricine-phosphine co-ligand system. Specifically, 15 μg of HYNIC-Duramycin was mixed with 40 mg of tricine, 1 mg of TPPTS and 20 μg SnCl2 in 0.8 ml at pH 5.3. The labeling was initiated with the addition of about 1 mCi of ^99mTc. The incubation was allowed to proceed for 40 min at room temperature. The final radiopharmaceutical, ^99mTc-HYNIC-Duramycin, was analyzed and purified using HPLC method 2. After purification, acetonitrile was removed by evaporation under nitrogen, and ^99mTc-HYNIC-Duramycin was reconstituted in saline for usage. ^99mTc-HYNIC-Duramycin^1 was synthesized in the same fashion. For stability tests, cysteine challenge was carried out at a cysteine-to-^99mTc-Duramycin ratio of 100 to 1, in 0.01 mM phosphate buffer (pH 6.8) for 2 hr at room temperature. The sample was analyzed with radioHPLC (method 2).

[2] = Competition assay with phospholipid liposomes on apoptotic cells; format: binding; conditions: for binding to apoptotic cells in the presence of PtdE-containing liposomes: increasing concentration of PtdC/PtdE liposomes
Procedure: Preparation of liposomes. Liposomes with the following chemical compositions were made: PtdC (100%), PtdC/PtdE (50/50, w/w), PtdC/PtdS (50/50, w/w), PtdC/PtdG (50/50, w/w). Solid phospholipids were weighed to contain 2 mg for each type of lipids in separate glass test tubes (10×140 mm). One ml of chloroform was used to completely dissolve the phospholipid in each tube. The chloroform was evaporated under a stream of nitrogen where the dried phospholipids formed a thin film of residue on the test tube wall. The samples were thoroughly dried under vacuum overnight. The next morning each sample was re-suspended in 2 ml of HEPES buffer (15 mM HEPES, 120 mM NaCl, pH 7.4) at 45° C. Each suspension was sonicated for 2-5 min at 15 sec each cycle until the mixture turned into an opaque appearance, which indicated the formation of multi-laminar liposomes. The samples were kept on ice until use.
Competition assay. The retention of the binding activity was determined using a competition assay in the presence of PtdE-containing liposomes. PtdC/PtdE liposomes was prepared as described herein. Binding assay was carried out in triplicate in the presence of increasing amount of PtdC/PtdE liposomes, from 1 nM to 10 μM final concentration in 4-fold increments. The radioactivity bound to the cell pellet was determined by gamma counting as described in the precious paragraph. The assay was repeated using liposomes containing other species of closely related phospholipids, including PtdC, PtdG, and PtdS.

[3] = Procedure: Blood half-life and pharmacokinetic studies. The animal protocol used was approved by the Institutional Animal Care and Use Committee under the NIH guideline. Healthy Sprague Dawley rats were injected with radiolabeled Duramycin (2.3 nmole) via the tail vein. At each designated time point, including 0, 1, 5, 15, 30, and 60 min, 50 μl of blood was withdrawn from a pre-installed femoral artery catheter and collected in heparinized tubes. The blood sample was centrifuged at 5000 g, and the radioactivity in the cellular and plasma fractions was measured separately by direct gamma counting using an energy window of 140±15 keV. The data output included total blood activity with time, and the activity associated with blood cells and the plasma, respectively. The blood half-life measurement was conducted in triplets. To analyze the pharmacokinetics of the radiopharmaceutical, 10 μl of the plasma or urine sample was analyzed using HPLC method 2 which involves the physical separation of molecules based upon the matrix-solvent interactions.
acute cardiac cell death [4] = experiment: In vivo imaging of acute cardiac cell death, rat model of ischemia and reperfusion
area-at-risk = experiment: Spatial and temporal uptake in the area-at-risk after myocardial ischemia and reperfusion; format: in vivo, rat
AMI = experiment: Window of detection for AMI, planar imaging and autoradiography; format: in vivo, rat
breast tumor = experiment: Imaging in chemical-induced breast cancer model with doxorubicin treatment; format: in vivo, rat
From the text: In an experimental example using a chemical-induced breast cancer model in rats, breast tumors were allowed to grow to palpable size prior to doxorubicin treatment (see arrow, FIG. 9B).

acute cardiac cell death [5] = experiment: Imaging of cardiac cell death after coronary ischemia with or without reperfusion (Example 2); format: in vivo, rat
Procedure: Cardiology applications include imaging cardiac cell death in heart diseases, such as acute myocardial infarction, myocarditis, myocardial ischemia, and heart transplant rejection. In an experimental example using a rat model, 99mTc-Duramycin was injected into a control rat (FIG. 10A) and a rat in which coronary ischemia was induced, followed by reperfusion (FIG. 10B). Both rats were subsequently imaged. […] A similar experiment was performed using a rat model where induced coronary ischemia was not followed by reperfusion.

[6] = system: heart transplant rejection; experiment: Imaging in rat model of heart transplant rejection; format: in vivo; conditions: days four and six post transplantation
Procedure: In another experimental example, using a rat model of heart transplant rejection, rats were given heart allograft transplants, and other rats were given heart isograft transplants. Four and six days after heart tissue transplantation, the rats were injected with 99mTc-Duramycin and subsequently imaged.

stroke = conditions: in vivo
rat serum albumin = rat serum albumin (Rattus norvegicus, UniProt P02770); conditions: RadioHPLC
[7] = dissected heart tissues, 60 min after injection

Chain of rat serum albumin (P02770 25-608): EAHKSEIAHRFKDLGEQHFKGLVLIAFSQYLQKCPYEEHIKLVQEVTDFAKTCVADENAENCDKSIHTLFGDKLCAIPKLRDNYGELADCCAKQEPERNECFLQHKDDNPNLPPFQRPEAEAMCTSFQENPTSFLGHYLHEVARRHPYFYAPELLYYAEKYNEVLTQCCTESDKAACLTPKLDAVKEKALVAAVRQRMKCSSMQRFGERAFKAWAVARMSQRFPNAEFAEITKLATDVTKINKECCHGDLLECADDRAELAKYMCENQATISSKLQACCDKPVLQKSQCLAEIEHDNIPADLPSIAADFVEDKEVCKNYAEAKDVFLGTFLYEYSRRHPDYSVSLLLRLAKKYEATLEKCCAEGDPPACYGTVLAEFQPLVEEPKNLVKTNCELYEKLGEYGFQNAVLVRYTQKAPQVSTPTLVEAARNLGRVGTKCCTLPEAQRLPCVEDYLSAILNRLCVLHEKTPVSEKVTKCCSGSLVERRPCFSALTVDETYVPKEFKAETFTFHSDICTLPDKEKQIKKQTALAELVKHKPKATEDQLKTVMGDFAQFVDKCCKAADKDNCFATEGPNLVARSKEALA

With `CC(C)=NNc1ccc(C(=O)NCCCC[C@@H]2NC(=O)[C@@H](N)CS[C@@H](C)[C@H]3NC(=O)[C@H](CC(N)=O)NC(=O)CNC(=O)[C@H]([C@@H](O)C(=O)O)NC(=O)[C@@H]4CSC[C@@H](NC(=O)[C@H](CCC(N)=O)NC2=O)C(=O)N[C@H]2CS[C@@H](C)[C@@H](NC(=O)[C@H](Cc5ccccc5)NC(=O)[C@@H]5CCCN5C(=O)CNC(=O)[C@H](Cc5ccccc5)NC(=O)[C@H](CNCCCC[C@@H](C(=O)O)NC3=O)NC2=O)C(=O)N[C@@H](Cc2ccccc2)C(=O)N[C@@H](C(C)C)C(=O)N4)cn1` [^99mTc-HYNIC-Duramycin, metal not drawn] the “time with no significant level of detached 99mTc detected” value [1] was “at least 24 hrs”, the “binding to apoptotic cells in the presence of liposomes of other phospholipids” value ([2]; PtdC, PtdG or PtdS liposomes) was “unable to competitively reduce” and the “binding to apoptotic cells in the presence of PtdE-containing liposomes” value [2] was “competitively abolished; also recorded: exclusively and competitively diminished”. The “binding to apoptotic cells in the presence of PtdE-containing liposomes” value ([2]; listed as 99mTc-HYNIC-Duramycin^1) was “not competitively diminished”, the “radio-HPLC analysis of plasma samples” value ([3]; after intravenous injection) was “majority of the injected radioactivity remained as the parent” and the “radioactivity in the blood associated with the plasma fraction” value ([3]; all time points) was “greater than 95%”. For the same molecule, the “average radioactivity at the infarct site” value (acute cardiac cell death [4]; at 1 hr post-injection) was “above 4.0 % ID/g”, the infarct-to-lung ratio (acute cardiac cell death [4]; at 2 hr after injection (n=3)) was 4.8±0.4 and the infarct-to-muscle ratio (acute cardiac cell death [4]; at 2 hr after injection (n=3)) was 12.2±1.3. For the same molecule, the “time after injection at which focal uptake was seen at the infarct” value (acute cardiac cell death [4]; dynamic images, as early as) was 10 min, the “average radioactivity at the infarct site” value (acute cardiac cell death [4]; rat, in vivo) was “less than 1.0 % ID/g” and the “retention / washout of radioactivity in the infarct” value (acute cardiac cell death [4]; rat, in vivo) was “accompanied with a washout”. For the same molecule, the “time uptake in infarct tissues remained persistent without significant washout” value (area-at-risk; after injection) was “at least 3 hours”, the “time to approach plateau of uptake” value (area-at-risk; area-at-risk, after injection) was ≤ 10 min and the “tracer uptake in the ischemic-non-infarct myocardium” value (area-at-risk; at 180 min) was 2.1±0.3 % ID. For the same molecule, the average infarct-to-normal ratio (area-at-risk; [7]) was 31.9, the average ischemic-to-normal ratio (area-at-risk; [7]) was 11.1 and the “tracer uptake in the ischemic-non-infarct myocardium” value (area-at-risk; minimum at 60 min) was 1.6±0.6 % ID/g. The “tracer uptake in the ischemic-non-infarct myocardium” value (area-at-risk; peak at around 10 min post-injection) was 2.7±0.6 % ID/g, the “radioactivity uptake in the infarcted myocardium” value (area-at-risk; plateau by 10 min after injection) was 4.3±0.7 % ID/g and the “level (plateau) of uptake in the area-at-risk” value (area-at-risk; rat myocardial ischemia and reperfusion) was ~4 % ID/g. For the same molecule, the “presence of radioactivity in the infarcted tissue reduced (inactivated tracer)” value (area-at-risk; rat, in vivo) was ~60%, the “time of maximum radioactivity in the infarcted tissue” value (area-at-risk; rat, in vivo) was “about 30 min” and the “radioactivity uptake in the normal myocardium” value (area-at-risk; reflecting residual blood pool signal) was “low”. The “radioactivity uptake in the infarcted myocardium” value (area-at-risk; within 3 min after injection) was 1.8±0.4 % ID/g, the “decline of signal-to-background ratio in autoradiographs” value (AMI; at 24 hr compared with 2 hr post infarction) was 32% and the “decline of signal-to-background ratio in autoradiographs” value (AMI; at 48 hr compared with 2 hr post infarction) was 43%. For the same molecule, the “uptake in treated breast tumor” value (breast tumor; after a single cycle of doxorubicin) was “elevated”, the “cardiac uptake after doxorubicin” value (breast tumor; rat, in vivo) was “also elevated” and the “imaging of acute cardiac cell death after reperfused coronary ischemia” value (acute cardiac cell death [5]; infarct model rat, 120 minutes after injection) was “can be seen”. The “imaging of cardiac cell death following nonreperfused coronary ischemia” value (acute cardiac cell death [5]; rat model) was “successfully imaged”, the “uptake in heart allografts in contrast to isografts” value [6] was “Markedly elevated” and the “uptake in brain, rat stroke model” value (stroke) was “Focal uptake of radioactivity is colocalized with regions of stroke”. The “complex formation between the tracer and albumin” value (rat serum albumin) was “did not result in any complex formation”.
